Assay results taken from US20070179161A1, “Pyrazolopyrimidine compounds and their use in medicine” (VERNALIS (CAMBRIDGE) LIMITED., priority 2003, published 2007).
Structures can show the parent of a compound that is named as a salt.

Columns and labels:
Type in all cases: biochemical
[1] = molecular target: T1, GST-Chk1 enzyme (Homo sapiens, UniProt O14757); experiment: Chk1 kinase inhibition assay (33P phosphorylation of Chktide, filter plate); details: 0.01 mM ATP, 11 nM GST-Chk1, 40 minutes at 30° C.; read-out: Chk1 IC50
T1 sequence (O14757 1-476): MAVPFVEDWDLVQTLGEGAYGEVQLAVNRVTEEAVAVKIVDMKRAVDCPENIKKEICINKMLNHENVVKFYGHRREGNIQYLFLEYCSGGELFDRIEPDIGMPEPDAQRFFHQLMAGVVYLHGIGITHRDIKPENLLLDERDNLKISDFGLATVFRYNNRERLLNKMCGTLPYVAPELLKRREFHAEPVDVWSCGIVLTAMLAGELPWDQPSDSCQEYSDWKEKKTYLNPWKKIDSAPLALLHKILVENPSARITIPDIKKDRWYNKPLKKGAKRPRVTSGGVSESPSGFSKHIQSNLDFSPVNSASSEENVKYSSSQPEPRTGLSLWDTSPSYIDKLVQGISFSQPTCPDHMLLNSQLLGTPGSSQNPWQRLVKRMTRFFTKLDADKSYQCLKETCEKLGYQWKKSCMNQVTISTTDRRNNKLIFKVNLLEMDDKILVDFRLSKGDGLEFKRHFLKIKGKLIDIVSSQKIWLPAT
Experimental: The assay mixture containing the inhibitor and Chk1 enzyme was mixed together in a microtiter plate in a final volume of 50 μl and incubated for 40 minutes at 30° C.
The reaction was stopped by adding 50 μl of 50 mM phosphoric acid. 90 μl of the mixture was transferred to a pre-wetted 96-well Multiscreen MAPHNOB filtration plate (Millipore) and filtered on a vacuum manifold. […] The filtration plate was dried for 10 min at 65° C., scintillant added and phosphorylated peptide quantified in a scintillation counter (Trilux, PerkinElmer)

[2] = molecular target: CDK-2 enzyme, complexed with cyclin A (Homo sapiens, UniProt P24941); experiment: CDK2 enzyme inhibition assay (33P phosphorylation of peptide […], filter plate); details: CDK-2/cyclin A, 0.1 mM ATP, 40 min at 30° C.
Experimental: (§1) The assay mixture containing the inhibitor and CDK-2 enzyme, complexed with cyclin A (0.4 U/ml) was mixed together in a microtiter plate in a final volume of 50 μl and incubated for 40 min at 30° C. The assay mixture contained 0.1 mM unlabeled ATP, 0.01 μCi/μl ^33P-γ-ATP, 0.03 mM peptide, 0.1 mg/ml BSA, 7.5 mM magnesium acetate, 50 mM HEPES-NaOH, pH 7.5. The reaction was stopped by adding 50 μl of 50 mM phosphoric acid. 90 μl of the mixture were transferred to a pre-wetted 96-well Multiscreen MAPHNOB filtration plate (Millipore) and filtered on a vacuum manifold. […] The filtration plate was dried for 10 min at 65° C., scintillant added and phosphorylated peptide quantified in a scintillation counter (Trilux, PerkinElmer)
HEPES is N-[2-Hydroxyethyl]piperazine-N′-[2-ethanesulfonic acid] BSA is bovine serum albumin.

[3] = molecular target: T2, PDK1 enzyme (Homo sapiens, UniProt O15530); experiment: PDK1 kinase inhibition assay (33P phosphorylation of synthetic peptide, filter plate); details: 0.01 mM ATP, 60 min at 30° C.; read-out: PDK1 IC50
T2 sequence (O15530 1-556): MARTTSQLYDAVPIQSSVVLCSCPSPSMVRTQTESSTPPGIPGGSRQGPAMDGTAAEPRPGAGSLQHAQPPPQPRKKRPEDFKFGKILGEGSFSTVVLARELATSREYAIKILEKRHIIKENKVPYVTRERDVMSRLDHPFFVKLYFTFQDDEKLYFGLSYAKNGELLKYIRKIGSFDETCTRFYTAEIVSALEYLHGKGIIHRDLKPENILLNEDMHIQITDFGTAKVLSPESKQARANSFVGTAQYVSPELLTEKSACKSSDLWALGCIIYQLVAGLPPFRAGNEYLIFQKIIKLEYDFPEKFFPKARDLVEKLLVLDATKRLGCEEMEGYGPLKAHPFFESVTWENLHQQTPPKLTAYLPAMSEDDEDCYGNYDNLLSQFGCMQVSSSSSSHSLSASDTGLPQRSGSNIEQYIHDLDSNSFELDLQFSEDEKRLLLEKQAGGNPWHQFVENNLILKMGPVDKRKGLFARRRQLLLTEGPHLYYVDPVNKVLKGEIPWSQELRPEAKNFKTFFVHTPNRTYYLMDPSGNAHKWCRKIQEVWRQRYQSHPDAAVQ
Experimental: as §1, with “and PDK1 enzyme” for “and CDK-2 enzyme, complexed with cyclin A (0.4 U/ml)”, “for 60” for “for 40”, “contained 0.01” for “contained 0.1”, “^33P-γ-ATP, 0.075” for “^33P-γ-ATP, 0.03”, “acetate, 0.05M Tris.HCl,” for “acetate, 50 mM HEPES-NaOH,”, “pH 7.5, 0.5% 2-mercaptoethanol.” for “pH 7.5.”

Structure (SMILES) | IC50 [1] | IC50 [2] | IC50 [3]
CC(C)c1cnn2c(Nc3ccc(S(=O)(=O)N(C)C)cc3)cc(C(=O)NCCN3CCOCC3)nc12 [Example 121] | > 200 µM | 9.3 µM | > 200 µM
CCNc1cc(Nc2ccc(S(C)(=O)=O)cc2)n2ncc(C(C)C)c2n1 [Example 56] | > 200 µM | 0.85 µM | 45.3 µM
CC(C)c1cnn2c(Nc3ccc(S(=O)(=O)N(C)CCO)cc3)cc(N3CCCC(CO)C3)nc12 (stereo not drawn) [Example 55] | > 200 µM | 0.27 µM | > 200 µM
CN(C)S(=O)(=O)c1ccc(Nc2cc(N[C@H]3CC[C@H](N)CC3)nc3c(-c4ccsc4)cnn23)cc1 [Example 154] | 0.63 µM | 1.42 µM | > 200 µM
CC(C)c1cnn2c(Nc3ccc(S(=O)(=O)N(C)C)cc3)cc(N3CCCC(C(=O)O)C3)nc12 (stereo not drawn) [Example 82] | > 200 µM | 4.23 µM | > 200 µM
CC(C)c1cnn2c(Nc3ccc(S(C)(=O)=O)cc3)cc(N(C)CCN(C)C)nc12 [Example 58] | 51.7 µM | 1.94 µM | > 200 µM
CC(C)c1cnn2c(Nc3ccc(S(=O)(=O)N(C)C)cc3)cc(NC3CCCCC3)nc12 [Example 63] | > 200 µM | 0.355 µM | > 200 µM
CC(C)c1cnn2c(Nc3ccc(S(=O)(=O)N(C)C)cc3)cc(NCCCN3CCN(C)CC3)nc12 [Example 124] | > 200 µM | 22.1 µM | > 200 µM
O=S(=O)(c1ccc(Nc2cc(Cl)nc3ccnn23)cc1)N1CCOCC1 [Example 9] | > 200 µM | 0.99 µM | > 200 µM
CC(C)c1cnn2c(Nc3ccc(S(=O)(=O)N(C)C)cc3)cc(N[C@H]3CC[C@H](O)CC3)nc12 [Example 101] | > 200 µM | 0.024 µM | 3.81 µM
Oc1ccc(-c2cc(Nc3cccc(Cl)c3)n3nccc3n2)cc1 [Example 5] | > 200 µM | 3.96 µM | > 200 µM
Fc1ccc(Nc2cc(-c3ccccc3)nc3ccnn23)cc1 [Example 1, 5-Phenyl-7-(4-fluorophenylamino)pyrazolo[1,5-a]pyrimidine hydrochloride] | > 200 µM | 6.09 µM | > 200 µM
CC(C)COc1cc(Nc2ccc(S(=O)(=O)N(C)CCN(C)C)cc2)n2ncc(C(C)C)c2n1 [Example 72] | 8.4 µM | 1.28 µM | > 200 µM
CCNc1cc(Nc2ccc(S(=O)(=O)N(C)C)cc2)n2ncc(C(C)C)c2n1 [Example 108] | > 200 µM | 3.14 µM | > 200 µM
CN(C)S(=O)(=O)c1ccc(Nc2cc(Cl)nc3c(Br)cnn23)cc1 [Example 76] | > 200 µM | 0.128 µM | > 200 µM
CN(C)CCNS(=O)(=O)c1ccc(Nc2cc(Cl)nc3c(Br)cnn23)cc1 [Example 135] | 43 µM | 0.081 µM | > 50 µM
CC(C)c1cnn2c(Nc3ccc(S(=O)(=O)N(C)C)cc3)cc(OC3CCCN(C)C3)nc12 (stereo not drawn) [Example 75] | 6.28 µM | 0.266 µM | > 200 µM
CC(C)COc1cc(Nc2ccc(S(=O)(=O)NCCN(C)C)cc2)n2ncc(C(C)C)c2n1 [Example 90] | 5.42 µM | 0.373 µM | > 200 µM
CC(C)c1cnn2c(Nc3ccc(S(=O)(=O)N(C)C)cc3)cc(N[C@H]3CC[C@H](NS(C)(=O)=O)CC3)nc12 [Example 126] | > 200 µM | 0.073 µM | 34.4 µM

Structure (SMILES) | IC50 [1] | IC50 [2] | IC50 [3]
CCc1cnn2c(Nc3ccc(S(C)(=O)=O)cc3)cc(Cl)nc12 [Example 43] | > 200 µM | 0.107 µM | > 200 µM
CN(C)S(=O)(=O)c1cccc(Nc2cc(Cl)nc3c(Br)cnn23)c1 [Example 93] | > 200 µM | 0.572 µM | > 200 µM
CC(C)c1cnn2c(Nc3ccc(S(=O)(=O)N(C)C)cc3)cc(OC3CCN(C)C3)nc12 (stereo not drawn) [Example 70] | 79.9 µM | 0.32 µM | > 200 µM
NC(=O)c1ccc(Nc2cc(Cl)nc3c(Br)cnn23)cc1 [Example 145] | 11 µM | 0.08 µM | > 50 µM
Cc1noc(C)c1-c1cc(Nc2ccc(F)cc2)n2nccc2n1 [Example 2, 5-(3,5-Dimethylisoxazole)-7-(4-fluorophenylamino)pyrazolo[1,5-a]pyrimidine] | > 200 µM | 13.4 µM | > 200 µM
Cc1cccc(-c2cc(NCc3ccncc3)n3nccc3n2)c1 [Example 7] | > 200 µM | 7.19 µM | > 200 µM
CCN(CC)c1cc(Nc2ccc(S(=O)(=O)N(C)C)cc2)n2ncc(C(C)C)c2n1 [Example 71] | > 200 µM | 0.655 µM | > 200 µM
CC(C)c1cnn2c(Nc3ccc(S(=O)(=O)N(C)CCO)cc3)cc(OCCN(C)C)nc12 [Example 39] | 80.8 µM | 0.403 µM | > 200 µM
O=S(=O)(c1ccc(Nc2ccnc3ccnn23)cc1)N1CCOCC1 [Example 16] | > 200 µM | 3.35 µM | > 200 µM
O=S(=O)(Nc1nccs1)c1ccc(Nc2cc(Cl)nc3ccnn23)cc1 [Example 11] | > 200 µM | 1.31 µM | > 200 µM
Oc1ccc(-c2cc(Nc3ccccc3)n3nccc3n2)cc1 [Example 4] | > 200 µM | 3.76 µM | > 200 µM
CN(C)S(=O)(=O)c1ccc(Nc2cc(Cl)nc3c(C4CC4)cnn23)cc1 [Example 127] | > 200 µM | 0.005 µM | 29.3 µM
CC(C)Oc1cc(Nc2ccc(S(=O)(=O)N(C)C)cc2)n2ncc(C(C)C)c2n1 [Example 64] | > 200 µM | 0.395 µM | > 200 µM
CC(C)c1cnn2c(Nc3ccc(S(=O)(=O)N(C)C)cc3)cc(N3CCCC(C(=O)N(C)C)C3)nc12 (stereo not drawn) [Example 92] | > 200 µM | 10.5 µM | > 200 µM
CC(C)c1cnn2c(Nc3ccc(S(=O)(=O)N(C)C)cc3)cc(N3CCCC(CO)C3)nc12 (stereo not drawn) [Example 49] | > 200 µM | 0.387 µM | > 200 µM
CC(C)c1cnn2c(Nc3ccc(S(C)(=O)=O)cc3)cc(N(C)CCO)nc12 [Example 59] | > 200 µM | 0.768 µM | > 200 µM
CC(C)c1cnn2c(Nc3ccc(S(=O)(=O)N(C)C)cc3)cc(O[C@H]3CC[C@H](N)CC3)nc12 [Example 114] | 3.45 µM | 0.017 µM | 125 µM
CC(C)c1cnn2c(Nc3ccc(S(=O)(=O)N4CCCC4)cc3)cc(N[C@H]3CC[C@H](N)CC3)nc12 [Example 62] | 3.24 µM | 0.024 µM | 1.2 µM
Cc1cccc(-c2cc(Nc3ccc(S(=O)(=O)Nc4ccccn4)cc3)n3nccc3n2)c1 [Example 18] | 52.4 µM | 0.96 µM | > 200 µM
